Test results reported in publication PMC10955247, “In vivo screening for toxicity-modulating drug interactions identifies antagonism that protects against ototoxicity in zebrafish” (Frontiers in Pharmacology, 2024).
“Also recorded” adds a separate entry of the source. Counter-ions that a name gives are not always drawn.

What was measured:
[1] = system: zebrafish lateral line hair cells; assay: PEPITA quantification of ototoxicity in YO-PRO-1-stained AB zebrafish larvae; type: in vivo; details: for ototoxic interaction with AZM: co-administration with AZM; for shift toward antagonism in lateral line HC damage as compared to inhibition of the bacterial species on average: interaction with AZM, zebrafish wEOB vs average of E. coli, M. abscessus, S. aureus; for EC75 shift: ototoxin co-administered with azithromycin (AZM) vs administered alone; for ototoxic interaction with clarithromycin (CLM): preliminary experiments; for interaction with neomycin in pairwise screen (wEOB): pairwise screen of NEO against 13 compounds; for HC inhibition: in the absence of AZM, 25 μM CAP, 600 μM CIS; for EC50 shift: ototoxin co-administered with AZM vs alone
Experimental: Therefore, at 5 dpf, larvae were transferred to 12-well plates (5–11 fish per well, 1 well per condition) containing the relevant compound or combination diluted with ICS water, or ICS water alone or high-dose neomycin to serve as controls. Unless otherwise noted, fish were exposed to drug (either an individual compound or a pairwise combination of compounds) for 4 h, as a balance between longer exposure times for accommodating varied kill kinetics and shorter exposure times for technical tractability. Treatments with multiple drugs involved co-administering a prepared solution consisting of both drugs with defined concentrations in ICS water.
Fluorescence microscopy was performed using a Keyence BZ-X800 microscope imaging system, which enables high-throughput semi-automated imaging of 96-well plates.
Each image was masked using automated object detection to include only the fish itself. Manual masks were created on occasion for avoidance of fluorescent contamination, adjusted segmenting for myo6b::gfp fish to remove inner ear HC fluorescence, or exclusion of dead or damaged fish. Each fish was then adjusted for autofluorescence using the fluorophore-free red channel and scored based on the sum of green fluorescence pixel values surrounding 10 of the top 15 brightest pixels in the masked image (Figures 1B–E). These scores were standardized by comparison with the median score of wells containing untreated fish and a score representing no remaining HC fluorescence, both derived for each plate.
Wells where the expected response ( Ra×Rb ) and observed response ( Rab ) were both less than 10% or greater than 90% were excluded from aggregation to reduce the effect of our choice of dose range. The remaining wells were summarized by averaging into a composite interaction score for the combination; we refer to this metric as the “windowed excess over Bliss” (wEOB).

[2] = system: MET channel; assay: FM1-43 uptake quantification in lateral line HCs (MET channel activity); type: in vivo, Danio rerio; details: AZM 190 µM, BZM 50 µM, 30 min, myo6b::gfp larvae
Experimental: FM1-43 experiments were performed with myo6b::gfp fish, raised to 5 dpf as above. Fish were exposed to drug conditions for 30 min, with 4 µM FM1-43 stain added into the drug treatment solution at minute 29, for a 1-min co-treatment stain exposure followed by simultaneous washout of all drugs and stain in fish water and anesthesia in 675 µM tricaine (selection of staining concentration and exposure duration was informed by ([Hernandez et al., 2006]; [Van Trump et al., 2010]; [Thomas et al., 2013]; [Monroe et al., 2016]; [Hailey et al., 2017]; [Majumder et al., 2017]; [Rocha-Sanchez et al., 2018]; [Stawicki et al., 2019]; [Parkinson and Stawicki, 2021]; [Lee et al., 2022]; [Derudas et al., 2023]; [Schrauwen et al., 2023])). Four to seven fish per condition were transferred to 96-well plates for imaging. Using the Keyence BZ-X800 with GFP filter and a custom filter (605/70 nm emission, 470/40 nm excitation), each fish was imaged with a ×2 objective in brightfield and green and red fluorescence channels as above. FM1-43 uptake was validated using benzamil, a known uptake inhibitor ([Rusch et al., 1994]).

[3] = system: zebrafish lateral line hair cells; assay: Uptake of TexasRed-conjugated neomycin (NEO-TR) into lateral line HCs; type: in vivo, Danio rerio; details: for accumulation of NEO-TR within lateral line HCs: NEO-TR 50 μM, 30 min, co-administered AZM 190 µM or BZM 50 µM, myo6b::gfp larvae; for Details (uptake inhibitor mechanism): Table S1, by means other than MET channel inhibition (this study)
Source text: To further explore the mechanism of macrolide and aminoglycoside antagonism, we fluorescently labeled the aminoglycosides neomycin and gentamicin with Texas Red-X succinimidyl ester to track HC uptake with and without macrolide treatment (Table 1). To avoid breakdown of fluorescent vital dyes over time, we used larvae with the transgene Tg(myo6b:EGFP); myo6b::gfp, that expressed GFP in their HCs. Drug-induced injury was quantified by loss of fluorescence in HCs. Fish were exposed to the fluorescently-labeled drug with or without macrolide co-administration for 30 min, before being washed in fresh ICS water and anesthetized with 675 µM tricaine. Five fish per condition were transferred to 96-well plates for imaging, as per the drug response testing experiments, while another five were euthanized on ice for 20 min, then fixed in 2% paraformaldehyde for 1 hour at room temperature, to prepare for confocal microscopy. Samples were prepared and GFP fluorescence was acquired following the same confocal imaging procedure as described in Section 2.3; TexasRed fluorescence was acquired with a 595 nm laser and 675/75 emission filter.
For the fish transferred to 96-well plates for imaging, fluorescence microscopy was performed using the Keyence BZ-X800. Using the GFP filter and a TexasRed Filter (630/75 nm emission, 560/40 nm excitation), each myo6b::gfp fish was imaged under a ×2 objective to capture the whole organism in brightfield, green, and red fluorescence channels. Each fish was then imaged under a ×40 objective with z-stacking to track the uptake of the fluorescently labeled aminoglycoside into the HCs in the head of the fish.

[4] = system: zebrafish lateral line hair cells; assay: Lateral line hair cell intracellular calcium imaging and cell death; type: in vivo
Source text: For calcium testing, zebrafish expressing HC-specific GCaMP targeted to the inner mitochondrial matrix were crossed with fish expressing a HC specific calcium indicator to create double-transgenic embryos (Tg (myo6b:mitoGCaMP3;myo6b:cytoRGECO), Table 1) with both green fluorescent mitochondrial calcium and red fluorescent cytosolic calcium indicators, then raised as described previously ([McQuate et al., 2023]). Zebrafish embryos were collected from 2-h spawning periods and raised in Petri dishes in embryo medium (EM: 14.97 mM NaCl, 500 μM KCl, 42 µM Na2HPO4, 150 µM KH2PO4, 1 mM CaCl2 dehydrate, 1 mM MgSO4, 0.714 mM NaHCO3, pH 7.2) at a density of 60 larvae per […] dish, in a dark 28.5°C incubator until 5 dpf. Larvae were screened for indicator expression at 4 dpf.
Calcium imaging was performed using an inverted Marianas spinning disk confocal system (Intelligent Imaging Innovations, 3i) with an Evolve 10 MHz EMCCD camera (Photometrics) and a Zeiss C-Apochromat 63x/1.2 numerical aperture water objective. Larvae were 5-6 dpf at the time of imaging. Larvae were first anesthetized in embryo media containing 800 µM tricaine, then stabilized on their sides under a harp, so that posterior neuromasts were exposed to the surrounding media. Imaging was performed at ambient temperature, approximately 25°C. GCaMP fluorescence was acquired with a 488 nm laser and 535/30 emission filter, with an exposure time of 100 ms, and RGECO fluorescence was acquired with a 561 nm laser and 617/73 emission filter and exposure time of 200 ms. Images were taken every 2 minutes as z-stacks through neuromasts in 2 µm steps. Neomycin and azithromycin were dissolved as a 4X stock in EM (described in Section 2.1: Zebrafish Husbandry), then added to the bath to achieve final working concentration after a 10-min baseline. Imaging of neuromasts continued for 50 min. Images were analyzed in ImageJ. Mean fluorescence intensity was measured for ROIs of individual randomly selected HCs (2–3 HCs per NM, see example ROI in Figure 4). For each HC, values were normalized to the average of baseline using Microsoft Excel.

Compound: NCC[C@H](O)C(=O)N[C@@H]1C[C@H](N)[C@@H](O[C@H]2O[C@H](CN)[C@@H](O)[C@H](O)[C@H]2O)[C@H](O)[C@H]1O[C@H]1O[C@H](CO)[C@@H](O)[C@H](N)[C@H]1O [Amikacin (AMK), Amikacin sulfate]
- ototoxic interaction with AZM [1]: otoprotective antagonistic interactions
- shift toward antagonism in lateral line HC damage as compared to inhibition of the bacterial species on average [1]: 31 %pt.
- EC75 shift [1]: 8-fold
- ototoxic interaction with clarithromycin (CLM) [1]: antagonistic interactions

Compound: CC[C@H]1OC(=O)[C@H](C)[C@@H](O[C@H]2C[C@@](C)(OC)[C@@H](O)[C@H](C)O2)[C@H](C)[C@@H](O[C@@H]2O[C@H](C)C[C@H](N(C)C)[C@H]2O)[C@](C)(O)C[C@@H](C)CN(C)[C@H](C)[C@@H](O)[C@]1(C)O [Azithromycin, Azithromycin dihydrate]
- FM1-43 uptake into lateral line HCs ([2]; listed as AZM): does not significantly hinder FM1-43 uptake; also recorded: did not significantly change FM1-43 accumulation in HCs
- accumulation of NEO-TR within lateral line HCs ([3]; listed as AZM): inhibition of NEO-TR uptake; also recorded: reduced HC accumulation of NEO-TR
- Details (uptake inhibitor mechanism) [3]: Prevents neomycin uptake
- HC cell death (observation) ([4]; NEO 50 µM, AZM 190 µM, calcium imaging): low levels of cell death
- HC mitochondrial and cytoplasmic calcium response ([4]; NEO 50 µM, AZM 190 µM, mitoGCaMP3, cytoRGECO larvae): occasionally observed increases in mitochondrial calcium
- cells that survived ([4]; calcium imaging): 24/25
- RFU remaining on average ([1]; 380µM AZM alone, aggregate dose response, AB and myo6b::gfp fish): Approximately 65%
- protection against NEO and GEN ototoxicity by co-administration ([1]; 1 h (acute) and 4 h (extended) treatment, conditions in which monotherapy induced significant damage): significant protection
- RFU (residual HC fluorescence) ([1]; AZM 380 μM, NEO 0 μM, 4 h): 48%
- protection from CAP-associated damage by co-administration ([1]; capreomycin): significant but less pronounced protection
- protection against damage caused by higher doses of CIS by co-administration ([1]; cisplatin): significant but modest protection
- interaction with neomycin in pairwise screen (wEOB) [1]: one of the strongest antagonizing compounds

Compound: NC(=NCc1ccccc1)NC(=O)c1nc(Cl)c(N)nc1N [BZM, Benzamil]
- FM1-43 uptake into lateral line HCs [2]: does significantly reduce FM1-43 uptake; also recorded: significant inhibition of FM1-43 uptake
- accumulation of NEO-TR within lateral line HCs [3]: inhibition of NEO-TR uptake
- interaction with neomycin in pairwise screen (wEOB) [1]: deviate toward antagonism

Compound: N.N.[Cl][Pt][Cl] [Cisplatin (CIS), Cisplatin]
- HC inhibition [1]: 81%
- EC50 shift [1]: 1.4 fold
- EC75 shift [1]: 1.8-fold
- EC75 shift ([1]; listed as CIS): 1.8 fold

Compound: CC[C@H]1OC(=O)[C@H](C)[C@@H](O[C@H]2C[C@@](C)(OC)[C@@H](O)[C@H](C)O2)[C@H](C)[C@@H](O[C@@H]2O[C@H](C)C[C@H](N(C)C)[C@H]2O)[C@](C)(O)C[C@@H](C)C(=O)[C@H](C)[C@@H](O)[C@]1(C)O [Erythromycin]
- Details (uptake inhibitor mechanism) [3]: Prevents neomycin uptake
- otoprotection against aminoglycoside ototoxicity during co-administration ([1]; macrolide co-administered with aminoglycosides): antagonistic otoprotection broadly against aminoglycoside ototoxicity

Compound: CNC(C)C1CCC(N)C(OC2C(N)CC(N)C(OC3OCC(C)(O)C(NC)C3O)C2O)O1 (stereo not shown) [Gentamicin (GEN), Gentamicin sulfate]
- ototoxic interaction with AZM [1]: otoprotective antagonistic interactions
- shift toward antagonism in lateral line HC damage as compared to inhibition of the bacterial species on average [1]: 37 %pt.
- EC75 shift [1]: 13-fold
- ototoxic interaction with clarithromycin (CLM) [1]: antagonistic interactions

Compound: NC[C@H]1O[C@H](O[C@H]2[C@H](O)[C@@H](O[C@H]3O[C@H](CO)[C@@H](O)[C@H](N)[C@H]3O)[C@H](N)C[C@@H]2N)[C@H](O)[C@@H](O)[C@@H]1O [Kanamycin (KAN), Kanamycin sulfate]
- ototoxic interaction with AZM [1]: otoprotective antagonistic interactions
- shift toward antagonism in lateral line HC damage as compared to inhibition of the bacterial species on average [1]: 45 %pt.
- EC75 shift [1]: >16-fold
- ototoxic interaction with clarithromycin (CLM) [1]: antagonistic interactions

Compound: NC[C@H]1O[C@H](O[C@H]2[C@H](O)[C@@H](O[C@H]3O[C@H](CO)[C@@H](O)[C@H](N)[C@H]3O)[C@H](N)C[C@@H]2N)[C@H](N)C[C@@H]1O [Tobramycin (TOB), Tobramycin]
- ototoxic interaction with AZM [1]: otoprotective antagonistic interactions
- shift toward antagonism in lateral line HC damage as compared to inhibition of the bacterial species on average [1]: 15 %pt.
- EC75 shift [1]: >16-fold

Compound: Capreomycin sulfate [Capreomycin (CAP)]
- HC inhibition [1]: 90%
- EC50 shift [1]: 1.9 fold
- EC75 shift [1]: 2.8-fold
- EC75 shift ([1]; listed as CAP): 2.8 fold
